Structures can show the parent of a compound that is named as a salt.
Experiments:
[1] = biological target: PDE4 (cAMP-specific); experiment: Inhibition of PDE isoenzymes: PDE4; assay type: biochemical; details: cytosol of human polymorphonuclear leukocytes (PMNL), cAMP as substrate, motapizone 1 μM
Experimental: (§1) 1. Inhibition of PDE Isoenzymes
(§2) The PDE activity was determined according to Thompson et al. (Adv Cycl Nucl Res 10: 69-92, 1979) with some modifications (Bauer and Schwabe, Naunyn-Schmiedeberg's Arch Pharmacol 311: 193198, 1980). The test samples contained 20 mM Tris (pH 7.4), 5 mM MgCl2, 0.5 μM cAMP or cGMP, [^3H]cAMP or [^3H]cGMP (about 30 000 cpm/sample), the PDE isoenzyme-specific additives described in greater detail below, the indicated concentrations of inhibitor and an aliquot of the enzyme solution in a total sample volume of 200 μl. Dilution series of the compounds according to the invention were prepared in DMSO and further diluted in the samples [1:100 (v/v)], to give the desired end concentration of the inhibitors at a DMSO concentration of 1% (v/v), which for its part has only a minute effect on PDE activity.
(§3) After preincubation at 37° C. for 5 minutes, the reaction was started by addition of the substrate (cAMP or cGMP). The samples were incubated at 37° C. for a further 15 min. The reaction was terminated by addition of 50 μl 0.2 N HCl. After cooling on ice for 10 minutes and addition of 25 μg 5′-nucleotidase (snake venom from Crotalus atrox), the mixture was again incubated at 37° C. for 10 min and the samples were then applied to QAE Sephadex A-25 columns (sample volume 1 ml). The columns were eluted with 2 ml of 30 mM ammonium formate (pH 6.0). The radioactivity of the eluate was measured and corrected by the corresponding blank values (measured in the presence of denatured protein); the blank values were less than 5% of the total radioactivity. In no case did the proportion of hydrolyzed nucleotide exceed 30% of the original substrate concentration.
PDE4 (cAMP-specific) was investigated in the cytosol of human polymorphonuclear leukocytes (PMNL) [isolated from leukocyte concentrates, see Schudt et al., Arch Pharmacol 1991: 344, 682-690] using cAMP as substrate. The PDE3 inhibitor motapizone (1 μM) was used to suppress the PDE3 activity emanating from contaminated platelets.
(§4) The IC50 values were determined from the concentration-inhibition curves by nonlinear regression.

[2] = biological target: T1, PDE3 (cGMP-inhibited) (Homo sapiens, UniProt Q14432); experiment: Inhibition of PDE isoenzymes: PDE3; assay type: biochemical; details: homogenates of human platelets, cAMP or cGMP as substrate; read-out: PDE3 [-log IC50, mol/l] (converted)
T1 construct: investigated in homogenates of human platelets; from tissue; host or cells: homogenates of human platelets
T1 sequence (Q14432 whole entry): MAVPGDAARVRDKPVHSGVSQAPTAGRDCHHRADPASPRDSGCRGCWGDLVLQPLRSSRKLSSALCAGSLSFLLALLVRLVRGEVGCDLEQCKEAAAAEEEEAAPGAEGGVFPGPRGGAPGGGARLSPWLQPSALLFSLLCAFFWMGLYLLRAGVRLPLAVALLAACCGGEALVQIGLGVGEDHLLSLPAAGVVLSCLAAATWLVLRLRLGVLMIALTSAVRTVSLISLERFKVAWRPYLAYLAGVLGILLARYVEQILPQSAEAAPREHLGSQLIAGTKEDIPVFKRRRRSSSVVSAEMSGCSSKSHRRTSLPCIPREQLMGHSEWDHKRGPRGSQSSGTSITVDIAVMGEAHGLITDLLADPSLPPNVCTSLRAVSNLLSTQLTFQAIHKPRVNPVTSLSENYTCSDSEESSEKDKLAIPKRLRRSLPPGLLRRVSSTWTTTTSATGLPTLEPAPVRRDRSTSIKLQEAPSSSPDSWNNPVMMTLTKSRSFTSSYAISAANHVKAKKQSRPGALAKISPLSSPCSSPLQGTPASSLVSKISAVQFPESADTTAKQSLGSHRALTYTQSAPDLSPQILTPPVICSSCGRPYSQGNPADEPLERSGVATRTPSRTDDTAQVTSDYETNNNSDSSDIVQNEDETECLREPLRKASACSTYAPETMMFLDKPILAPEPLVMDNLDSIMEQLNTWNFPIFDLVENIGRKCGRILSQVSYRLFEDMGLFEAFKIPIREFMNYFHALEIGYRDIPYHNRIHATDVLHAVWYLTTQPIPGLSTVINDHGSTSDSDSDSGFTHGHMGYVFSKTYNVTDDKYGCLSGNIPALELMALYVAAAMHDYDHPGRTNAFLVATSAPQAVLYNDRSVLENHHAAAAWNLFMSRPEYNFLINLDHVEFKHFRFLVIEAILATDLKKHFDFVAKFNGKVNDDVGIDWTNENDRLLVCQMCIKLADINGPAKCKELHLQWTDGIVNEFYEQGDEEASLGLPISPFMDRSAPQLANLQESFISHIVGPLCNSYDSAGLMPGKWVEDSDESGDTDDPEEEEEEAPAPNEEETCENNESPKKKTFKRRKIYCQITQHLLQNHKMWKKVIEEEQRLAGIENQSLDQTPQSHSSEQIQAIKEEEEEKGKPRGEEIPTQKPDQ
Experimental: as §1, §2, §3
PDE3 (cGMP-inhibited) was investigated in homogenates of human platelets (see Schudt et al., Biochem Pharmacol 1991: 42, 153-162) using cAMP or cGMP as substrate.
as §4

| SMILES | melting point | PDE4 [-log IC50, mol/l] [1] | IC50 [2] |
| --- | --- | --- | --- |
| CCOc1cc2c(cc1OC)C(c1ccc(C(=O)N=C(N)N3CCN(C)CC3)cc1)=NC1CCN(C)CC21 (stereo not drawn) (as salt: hydrochloride) [Compound 6, N-[1-Amino-1-(4-methylpiperazin-1-yl)methylene]-4-((+)-cis-9-ethoxy-8-methoxy-2-methyl-1,2,3,4,4a,10b-hexahydro[c][1,6]naphthyridin-6-yl)benzamide dihydrochloride] | 209 to 215 °C |  |  |
| CCOc1cc2c(cc1OC)C(c1ccc(C(=O)NC(=N)N3CCCC3)cc1)=N[C@H]1CCN(C)C[C@@H]21 (relative stereo) [Compound 11, 4-((cis)-9-Ethoxy-8-methoxy-2-methyl-1,2,3,4,4a,10b-hexahydro-benzo[c][1,6]naphthyridin-6-yl)-N-(1-imino-1-pyrrolidin-1-yl-methyl)-benzamide] | 145 to 152 °C | 8.41 | 550 nM |
| CCOc1cc2c(cc1OC)C(c1ccc(C(=O)NC(=NC)N(C)C)cc1)=N[C@H]1CCN(C)C[C@@H]21.Cl (relative stereo) [Compound 13, N′-{1-[4-((cis)-9-Ethoxy-8-methoxy-2-methyl-1,2,3,4,4a,10b-hexahydro-benzo[c][1,6]naphthyridin-6-yl)-phenyl]-methanoyl}-N,N,N″-trimethyl-guanidine hydrochloride] | 143 to 150 °C | 9.34 | 91.2 nM |
| CCOc1cc2c(cc1OC)C(c1ccc(C(=O)N=C(N(C)C)N(C)C)cc1)=NC1CCN(C)CC21 (single isomer, unassigned) (as salt: hydrochloride) [Compound 5, N″{1-[4-((−)-cis-9-Ethoxy-8-methoxy-2-methyl-1,2,3,4,4a,10b-hexahydro[c][1.6]naphthyridin-6-yl)phenyl]methanoyl}-N,N,N′,N′-tetramethylguanidine hydrochloride] | 169 to 175 °C |  |  |
| CCOc1cc2c(cc1OC)C(c1ccc(C(=O)NC(=N)N(C)C)cc1)=NC1CC[N+](C)([O-])CC21 (single isomer, unassigned) [Compound 22, N′-{1-[4-((−)-cis-9-Ethoxy-8-methoxy-2-methyl-2-oxy-1,2,3,4,4a,10b-hexahydro-benzo[c][1,6]naphthyridin-6-yl)-phenyl]-methanoyl}-N,N-dimethyl-guanidine] | 220 to 224 °C | 7.71 | 676 nM |
| CCOc1cc2c(cc1OC)C(c1cccc(C(=O)NC(=N)N(C)C)c1)=NC1CCN(C)CC21 (stereo not drawn) [Compound 10, N′-{1-[3-(cis)-9-Ethoxy-8-methoxy-2-methyl-1,2,3,4,4a,10b-hexahydro-benzo[c][c][1,6]naphthyridin-6-yl)-phenyl]-methanoyl}-N,N-dimethyl-guanidine] | 186 to 188 °C | 8.15 | 891 nM |

From patent publication US6936622B2, “6-phenylbenzonaphthyridines” (Altana Pharma AG, priority 2001, dated 2005)
